These are literature values, as cited in patent US7863273B2, “Process for the preparation of an optically active 5H-pyrrolo [3,4-B] pyrazine derivative” (Glenmark Generics Ltd., priority 2006, dated 2011).

Series [1] has as its system pentetrazol-induced convulsions. To be noted: relative to zopiclone (racemate).
For a further series, the system named is writhing reflex. To be noted: relative to zopiclone (racemate).
The subject of series [2] is central benzodiazepine receptor sites. To be noted: relative to zopiclone (racemate).
Experiment in series [3]: not given
This is another data set of the same source.

Molecules are shown by their SMILES.

Take `CN1CCN(C(=O)O[C@H]2c3nccnc3C(=O)N2c2ccc(Cl)cn2)CC1` [dextrorotatory isomer, (+)-(5S)-6-(chloropyridin-2-yl)-7-oxo-6,7-dihydro-5H-pyrrol[3,4-b]pyrazin-5-yl 4-methylpiperazine-1-carboxylate]: the “toxicity as compared to the racemate” value is given as “lower toxicity”. Further, the “potency of action: antagonist activity with respect to pentetrazol-induced convulsions” value in series [1] is “approximately twice as active”. For the same compound, the “potency of action: writhing reflex test in mice” value with writhing reflex is “approximately twice as active”. Moreover, the “potency of action: affinity for central benzodiazepine receptor sites” value in series [2] is “approximately twice as active”. In addition, in series [3], the “activity as compared to the racemate” value is listed as “approximately twice as active”.

`CN1CCN(C(=O)O[C@@H]2c3nccnc3C(=O)N2c2ccc(Cl)cn2)CC1` (single isomer, unassigned) [laevorotatory isomer]: the “toxicity as compared to the racemate” value is “more toxic than the racemate”. In series [1], the “potency of action: antagonist activity with respect to pentetrazol-induced convulsions” value was “almost inactive”. The “potency of action: writhing reflex test in mice” value in the series on writhing reflex was “almost inactive”. Besides, in series [2], the “potency of action: affinity for central benzodiazepine receptor sites” value is “almost inactive”. The “activity as compared to the racemate” value in series [3] is “almost inactive”.
